Results reported in patent US9789102B2, “H3 receptor antagonist for use in the treatment of alzheimer's disease” (SANOFI, priority 2012, dated 2017).

Tests used:
[1] = test system: neurofibrillary tangles (NFTs); test: NFTs formation by Gallyas silver staining with quantitative image analysis after six months in food; type: in vivo, THY-Tau22 mice
Source text: 2-(Cyclohexylmethyl)-N-{2-[(2S)-1-methylpyrrolidin-2-yl]ethyl}-1,2,3,4-tetrahydroisoquinoline-7-sulfonamide difumarate monohydrate was administrated as a supplement in food at doses of 0.00034%, 0.0034% and 0.034% for six months in THY-Tau22 and wild type mice as follows: • Tg Veh (n=17) • Tg Active Ingredient—0.034% (n=17) • Tg Active Ingredient—0.0034% (n=17) • Tg Active Ingredient—0.00034% (n=17) • WT Veh (n=17) • WT Active Ingredient—0.034% (n=17) • WT Active Ingredient—0.0034% (n=17) • WT Active Ingredient—0.00034% (n=17) • WT groups treated with Active Ingredient are not used in the biochemical and histological studies.
After mice were decapitated, brains were removed and one hemibrain (used for histopathological studies) was immersion-postfixed for seven days at 4° C. with 4% formaldehyde (Carlo Erba/code 415691). The other hemibrain was prepared for biochemical quantitative measurements.
Post-fixed hemibrains were incubated in phosphate-buffered saline (PBS, P 3813-10PAK, Sigma), transferred to a 20% sucrose solution (code 27480.294—Prolabo) for 48 hours at 4° C. to ensure good cryopreservation of tissues during subsequent freezing. For freezing, hemibrains were immersed for one minute in isopentane solution (Ref. No. 24872-323—Prolabo) cooled with dry ice to between −25° C. and −30° C. and then stored at −25° C.
The entire hemibrains were cut with a cryostat (Microm, HM560). Serial sagittal brain tissue sections were collected onto Superfrost plus microscope glass slides (VWR) and then stored at −20° C. (sections of 20 μm of thickness), or placed in PBS-sodium azide 0.1% (S-2002, Sigma) containing wells to avoid any contamination and stored at 4° C. (sections of 30 μm of thickness).
NFTs are a major defining neuropathological feature of tau pathology in AD. They consist of bundles of paired helical filaments and straight filaments and their main constituent is the hyperphosphorylated microtubule-associated protein tau. Gallyas staining is generally used to stain neurofibrillary pathology (Sun A. et al., J. Histochem Cytochem, 2002, 50, 4, pp. 463-472).
A series of 20 μm hemibrain sections (directly mounted on slides) per mice was used for Gallyas staining (Braak and Braak, 1991, Brain Pathology, 1, pp. 213-216). The detailed protocol is as follows:
The following reagents are used: periodic acid (Sigma Ref. No. P 7875); sodium hydroxide (Prolabo Ref. No. 1737-1000); potassium iodide (Merck Ref. No. 1.05043.1000); silver nitrate (Sigma Ref. No. S.8157); 100% ascetic acid (Prolabo Ref. No. 20 104.298); sodium carbonate, anhydrous (Merck Ref. No. 1.06392-0500); ammonium nitrate (Prolabo Ref. No. 21280-293); silicotungstic acid (Sigma Ref. No. T 2786); 40% formaldehyde (Carlo Erba Ref. No. 415661); sodium thiosulfate (Sigma Ref. No. 21724-500 g).
A first stock solution (No. 1) was prepared by dissolving 50 g of anhydrous sodium carbonate in 1000 ml of deionized water. A second stock solution (No. II) was prepared by dissolving 2 g of ammonium nitrate, 2 g of silver nitrate, and 10 g of silicotungstic acid in 1000 ml of deionized water. A third stock solution (No. III) was prepared by dissolving 2 g of ammonium nitrate, 2 g of silver nitrate, 10 g of silicotungstic acid, and 7.3 ml of commercial 37% formaldehyde solution in 1000 ml of deionized water. The stock solutions are stable and can be stored in opaque containers.
Each of the following steps in the method are carried out with stirring. • 1. Pretreatment: The sections on slides were immersed in a solution of 5% periodic acid in water for 5 minutes, and then rinsed twice for 5 minutes in deionized water. • 2. Argentation: The silver iodide solution is freshly prepared by dissolving 4 g of sodium hydroxide in 50 ml of distilled water and adding 10 g of potassium iodide, which is mixed and allowed to dissolve completely. 3.5 ml of a solution of 1% silver nitrate in water is added while stirring. […]

[2] = test system: protein tau phosphorylation at AD-2 epitope; test: Western blot of tau phosphorylation at AD-2 epitope after single administration (Example 1); type: in vivo; conditions: THY-Tau22 mice
Description: For immunoblot analysis, frozen mouse tissues (either hippocampus or cortex) were homogenized using a Precellys 24 tissue homogenizer in 350 μl RIPA buffer from Cell Signaling (20 mM Tris-HCl (pH 7.5), 150 mM NaCl, 1 mM Na2 EDTA, 1 mM EGTA, 1% NP-40, 1% sodium deoxycholate, 2.5 mM sodium pyrophosphate, 1 mM beta-glycerophosphate, 1 mM Na3VO4, 1 μg/ml leupeptin) to which proteases inhibitors (Sigma cocktail 1% v/v) and phosphatases inhibitors (okadaic acid 1 μM, sodium fluoride 100 mM) were added. After centrifugation, 16000×g 4° C. for 10 minutes, protein content in supernatants was determined with BioRad DC Protein Assay kit, using BSA as a standard. […] Tau protein was detected using the following mouse antibody: AD-2 1/20.000^e (Biorad, 56484) which recognizes tau protein phosphorylated on Ser396 and Ser404. […]
Following incubation with primary antibodies, blots were rinsed in TBS Tween 0.1% and incubated for 1 hour at room temperature in an anti-mouse IgG horseradish peroxidase (HRP)-linked secondary antibody 1/10,000^e (GE healthcare, NA9310) diluted in 5% non-fat dry milk in TBS Tween 0.1%. […] Quantification of immunoreactive signal was performed using Multigauge V3.0 software (FUJIFILM). […]

SMILES: CN1CCC[C@H]1CCNS(=O)(=O)c1ccc2c(c1)CN(CC1CCCCC1)CC2 [2-(cyclohexylmethyl)-N-{2-[(2S)-1-methylpyrrolidin-2-yl]ethyl}-1,2,3,4-tetrahydroisoquinoline-7-sulfonamide difumarate monohydrate]
- protective effect against pathological neurons (tangles number), all analyzed brain ROIs ([1]; 0.00034% in food): no protective effect
- NFTs formation in CA1 hippocampal subarea, vs vehicle ([1]; 0.0034% in food, n=9): statistical significant decrease
- NFTs formation in cortex, vs vehicle ([1]; 0.0034% in food, n=9): statistical significant decrease
- decrease in the number of tangles, CA1 hippocampal subarea ([1]; 0.0034% in food, significant): −25%
- decrease of the number of pathological neurons (NFTs, Gallyas), cortex ([1]; 0.0034% in food, significant): −48%
- decrease in NFTs, amygdala ([1]; 0.0034% in food, statistically non-significant): −19%
- NFTs formation in CA1 hippocampal subarea, vs vehicle ([1]; 0.034% in food, n=9): statistical significant decrease
- NFTs formation in amygdala, vs vehicle ([1]; 0.034% in food, n=9): statistical significant decrease
- NFTs formation in cortex, vs vehicle ([1]; 0.034% in food, n=9): statistical significant decrease
- decrease in NFTs, amygdala ([1]; 0.034% in food, significant): −31%
- decrease in the number of tangles, CA1 hippocampal subarea ([1]; 0.034% in food, significant): −22%
- decrease of the number of pathological neurons (NFTs, Gallyas), cortex ([1]; 0.034% in food, significant): −41%
- effect on protein tau phosphorylation at AD-2 epitope in the cortex ([2]; 3 mg/kg per os): did not elicit any effect
- effect on protein tau phosphorylation at AD-2 epitope in the cortex ([2]; 10 mg/kg per os): did not elicit any effect
